Assays:
CXCL14 mRNA expression [1] = experiment: CXCL14 transcript levels (qRT-PCR) in already differentiated SGBS adipocytes treated acutely (24h); type: cell-based, human; conditions: acute 24h treatment; spironolactone at 10 µM (Figure 3A)
Experimental: (§1) • Figure 1 • A. Baseline circulating CXCL14 concentrations in girls with polycystic ovary syndrome (PCOS, N= 52) and in healthy age-matched controls (N= 21). Data are mean + SEM. • B. Longitudinal results of CXCL14 serum concentrations in girls with PCOS who received an oral contraceptive (OC, white circles, N= 16) or low-dose spironolactone, pioglitazone and metformin (SPIOMET, black circles, N= 15). […] SGBS human pre-adipocytes were treated chronically (10 days) with pioglitazone, spironolactone or metformin alone (A) or in combination (B, C, D) at the indicated doses across the adipoipogeic differentiation process. • A, B. CXCL14 transcript levels are presented as means + SEM from 4-5 independent experiments, and are expressed relative to values from untreated control cells. • C. […] SGBS cells were treated acutely (24h, at the indicated doses) when already differentiated adipocytes.
(§2) Cell culture reagents and drugs were from Sigma.

CXCL14 mRNA expression [2] = experiment: cells; type: cell-based, human; conditions: for effect of addition to pioglitazone on pioglitazone induction of CXCL14 mRNA expression: added to pioglitazone, 10 days across differentiation (Figure 2B)
Experimental: as §1, §2

CXCL14 protein [3] = experiment: CXCL14 protein (ELISA) in cell culture medium of differentiating SGBS cells; type: cell-based, human; conditions: chronic treatment across differentiation; detectable only under pioglitazone treatment
Excerpt: as §2

CXCL14 protein [4] = conditions: sgbs adipocytes, 24 h
Experimental: as §1, §2

| increase of the CXCL14 protein levels released by adipocytes to the cell culture medium (CXCL14 protein [4]) | Structure (SMILES) | CXCL14 mRNA expression on already differentiated human adipocytes (CXCL14 mRNA expression [1]) | effect of addition to pioglitazone on pioglitazone induction of CXCL14 mRNA expression (CXCL14 mRNA expression [2]) | CXCL14 protein in the cell culture medium of differentiating cells (CXCL14 protein [3]) | fold induction at 0.1 µM (CXCL14 mRNA expression [2]; Homo sapiens, SGBS, 240 h, read-out: induction of CXCL14 mRNA expression) |
| --- | --- | --- | --- | --- | --- |
|  | CN(C)C(=N)N=C(N)N [metformin] | Neither pioglitazone nor metformin alone had any effect | did not modify |  |  |
|  | CCc1ccc(CCOc2ccc(CC3SC(=O)NC3=O)cc2)nc1 (stereo not shown) [pioglitazone] |  |  | 0.185 ng/mL | ~10 |
| ~8 fold | CC(=O)S[C@@H]1CC2=CC(=O)CC[C@]2(C)[C@H]2CC[C@@]3(C)[C@@H](CC[C@@]34CCC(=O)O4)[C@H]12 [spironolactone] | significant induction | reduced significantly |  |  |
